Measurements: ChEMBL document CHEMBL2440027, “Further SAR studies on bicyclic basic merbarone analogues as potent antiproliferative agents” (Bioorg Med Chem, 2013)

Experiments:
NCI-H460 = experiment: Growth inhibition of human NCI-H460 cells assessed as cell growth at 10 uM after 48 hrs by sulforhodamine B assay relative to control; type: functional; conditions: NCI-H460, 48 h, read-out: Activity
HeLa = experiment: Cytotoxicity against human HeLa cells; type: functional, cell-based; conditions: Homo sapiens, HeLa
[1] = biological target: DNA topoisomerase 2-alpha (Homo sapiens, UniProt P11388); experiment: Inhibition of human topoisomerase 2alpha-mediated relaxation of supercoiled pBR322 after 1 hr by ethidium bromide staining
TK-10 = experiment: Growth inhibition of human TK10 cells assessed as cell growth at 10 uM after 48 hrs by sulforhodamine B assay relative to control; type: functional; conditions: TK-10, 48 h, read-out: Activity
HOP-92 [2] = experiment: Growth inhibition of human HOP92 cells after 48 hrs by sulforhodamine B assay; type: functional; conditions: HOP-92, 48 h
HT-29 = experiment: Growth inhibition of human HT-29 cells after 48 hrs by sulforhodamine B assay; type: functional; conditions: HT-29, 48 h; for CC50: read-out: LC50 (the source's name)
SR = experiment: Growth inhibition of human SR cells after 48 hrs by sulforhodamine B assay; type: functional
UACC-257 = experiment: Growth inhibition of human UACC257 cells after 48 hrs by sulforhodamine B assay; type: functional; conditions: UACC-257, 48 h; for CC50: read-out: LC50 (the source's name)
[3] = Growth inhibition of human HCC2998 cells after 48 hrs by sulforhodamine B assay; type: functional; conditions: HCC 2998, 48 h
K562 = experiment: Growth inhibition of human K562 cells assessed as cell growth at 10 uM after 48 hrs by sulforhodamine B assay relative to control; type: functional; conditions: K562, 48 h, read-out: Activity
T47D = experiment: Growth inhibition of human T47D cells assessed as cell growth at 10 uM after 48 hrs by sulforhodamine B assay relative to control; type: functional; conditions: read-out: Activity
NCI-H23 = experiment: Growth inhibition of human NCI-H23 cells after 48 hrs by sulforhodamine B assay; type: functional; conditions: NCI-H23, 48 h
RXF 393 = experiment: Growth inhibition of human RXF393 cells assessed as cell growth at 10 uM after 48 hrs by sulforhodamine B assay relative to control; type: functional; conditions: RXF 393, 48 h, read-out: Activity
MCF7 = experiment: Cytotoxicity against human MCF7 cells; type: functional, cell-based
UACC-62 = experiment: Growth inhibition of human UACC62 cells after 48 hrs by sulforhodamine B assay; type: functional; conditions: UACC-62, 48 h; for CC50: read-out: LC50 (the source's name)
HCT-15 = experiment: Growth inhibition of human HCT15 cells assessed as cell growth at 10 uM after 48 hrs by sulforhodamine B assay relative to control; type: functional; conditions: HCT-15, 48 h, read-out: Activity
BT-549 = experiment: Growth inhibition of human BT549 cells assessed as cell growth at 10 uM after 48 hrs by sulforhodamine B assay relative to control; type: functional; conditions: BT-549, 48 h, read-out: Activity
LOX IMVI = experiment: Growth inhibition of human LOXIMVI cells assessed as cell growth at 10 uM after 48 hrs by sulforhodamine B assay relative to control; type: functional; conditions: read-out: Activity
HL-60(TB) = experiment: Growth inhibition of human HL-60(TB) cells assessed as cell growth at 10 uM after 48 hrs by sulforhodamine B assay relative to control; type: functional; conditions: HL-60, 48 h, read-out: Activity
HOP-92 [4] = experiment: Growth inhibition of human HOP92 cells assessed as cell growth at 10 uM after 48 hrs by sulforhodamine B assay relative to control; type: functional; conditions: HOP-92, 48 h, read-out: Activity

Sequence of DNA topoisomerase 2-alpha (P11388 whole entry): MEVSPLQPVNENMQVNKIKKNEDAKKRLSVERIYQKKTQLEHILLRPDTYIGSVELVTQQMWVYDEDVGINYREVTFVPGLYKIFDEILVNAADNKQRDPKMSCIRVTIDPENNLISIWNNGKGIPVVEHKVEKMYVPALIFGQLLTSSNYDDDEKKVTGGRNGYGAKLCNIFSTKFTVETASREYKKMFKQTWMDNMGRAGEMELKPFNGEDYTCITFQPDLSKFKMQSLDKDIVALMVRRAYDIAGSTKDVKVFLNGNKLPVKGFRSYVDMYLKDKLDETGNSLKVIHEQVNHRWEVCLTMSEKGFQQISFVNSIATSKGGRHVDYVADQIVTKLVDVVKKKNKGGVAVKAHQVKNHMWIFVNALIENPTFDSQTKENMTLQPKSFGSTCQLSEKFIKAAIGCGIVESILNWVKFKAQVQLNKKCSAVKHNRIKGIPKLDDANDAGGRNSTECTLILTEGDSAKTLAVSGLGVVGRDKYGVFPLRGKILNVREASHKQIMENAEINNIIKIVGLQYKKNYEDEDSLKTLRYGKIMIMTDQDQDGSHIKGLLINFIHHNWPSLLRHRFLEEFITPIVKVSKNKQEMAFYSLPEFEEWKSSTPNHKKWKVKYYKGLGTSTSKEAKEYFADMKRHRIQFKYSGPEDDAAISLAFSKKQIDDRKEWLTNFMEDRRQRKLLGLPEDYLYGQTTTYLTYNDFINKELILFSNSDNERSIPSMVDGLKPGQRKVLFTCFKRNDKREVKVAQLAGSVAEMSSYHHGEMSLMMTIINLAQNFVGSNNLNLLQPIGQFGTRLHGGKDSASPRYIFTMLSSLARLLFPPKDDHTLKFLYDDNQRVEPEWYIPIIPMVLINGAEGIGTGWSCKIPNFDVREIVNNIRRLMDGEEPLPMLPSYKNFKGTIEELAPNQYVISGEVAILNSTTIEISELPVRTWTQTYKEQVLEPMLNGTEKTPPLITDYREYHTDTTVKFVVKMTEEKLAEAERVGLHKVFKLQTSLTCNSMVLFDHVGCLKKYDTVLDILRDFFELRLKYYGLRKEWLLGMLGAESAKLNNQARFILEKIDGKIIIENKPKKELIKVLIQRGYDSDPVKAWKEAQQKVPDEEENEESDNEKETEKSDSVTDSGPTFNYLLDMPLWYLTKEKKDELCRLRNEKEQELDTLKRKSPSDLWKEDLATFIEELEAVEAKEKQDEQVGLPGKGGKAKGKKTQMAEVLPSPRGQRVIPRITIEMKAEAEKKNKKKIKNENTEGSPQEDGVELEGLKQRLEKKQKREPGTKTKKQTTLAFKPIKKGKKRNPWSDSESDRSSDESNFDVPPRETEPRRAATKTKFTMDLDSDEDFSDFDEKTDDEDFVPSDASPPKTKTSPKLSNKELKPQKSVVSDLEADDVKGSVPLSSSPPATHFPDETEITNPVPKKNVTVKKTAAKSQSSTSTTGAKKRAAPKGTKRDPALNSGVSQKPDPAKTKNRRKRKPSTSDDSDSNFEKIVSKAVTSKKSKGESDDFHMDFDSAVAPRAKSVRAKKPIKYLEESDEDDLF

## CN(C)CCNc1nc2c(c(=N)n1-c1ccccc1)c(=S)n(-c1ccccc1)c(=S)n2-c1ccccc1
NCI-H460
  growth at 10 µM: 3.8%
HeLa
  IC50: 12.6 µM
[1]
  IC50: > 100 µM
TK-10
  growth at 10 µM: 47.7%
HOP-92 [2]
  GI50: 1.8 µM
  LC50 (concentration killing 50% of cells): 60.1 µM
  TGI: 10.3 µM
HT-29
  GI50: 1.4 µM
  TGI: 3.4 µM
  CC50: 8.3 µM
SR
  GI50: 1.4 µM
  LC50: 8.2 µM
  TGI: 3.3 µM
UACC-257
  GI50: 1.7 µM
  TGI: 3.6 µM
  CC50: 7.5 µM
[3]
  GI50: 2.3 µM
  LC50: 43 µM
  TGI: 6.8 µM
K562
  growth at 10 µM: -11.4%
T47D
  growth at 10 µM: -19.4%
NCI-H23
  GI50: 16.8 µM
  TGI: 42.1 µM
RXF 393
  growth at 10 µM: -39.1%
MCF7
  IC50: 16 µM
UACC-62
  GI50: 1.8 µM
  TGI: 3.5 µM
  CC50: 6.6 µM
HCT-15
  growth at 10 µM: 18.8%
BT-549
  growth at 10 µM: 4.45%
LOX IMVI
  growth at 10 µM: -61.4%
HL-60(TB)
  growth at 10 µM: 36.6%

## CCCCN(CCCC)CCCNc1nc2c(c(=N)n1-c1ccccc1)c(=S)n(-c1ccccc1)c(=S)n2-c1ccccc1
NCI-H460
  growth at 10 µM: -95.7%
TK-10
  growth at 10 µM: -89.6%
HOP-92 [4]
  growth at 10 µM: -66.9%
HOP-92 [2]
  GI50: 0.2 µM
  LC50 (concentration killing 50% of cells): 3.5 µM
  TGI: 0.8 µM
HT-29
  GI50: 0.2 µM
  TGI: 0.5 µM
  CC50: 1.8 µM
SR
  GI50: 0.3 µM
  LC50: 7 µM
  TGI: 1.5 µM
UACC-257
  GI50: 0.2 µM
  TGI: 0.4 µM
  CC50: 0.9 µM
[3]
  GI50: 0.4 µM
  LC50: 4.7 µM
  TGI: 1.8 µM
K562
  growth at 10 µM: -90.3%
T47D
  growth at 10 µM: -62.1%
NCI-H23
  GI50: 1.6 µM
  LC50 (concentration killing 50% of cells): 8.4 µM
  TGI: 3.4 µM
RXF 393
  growth at 10 µM: -67.7%
UACC-62
  GI50: 0.3 µM
  TGI: 1.2 µM
  CC50: 3.5 µM
HCT-15
  growth at 10 µM: -73.3%
BT-549
  growth at 10 µM: -90.6%
LOX IMVI
  growth at 10 µM: -89.7%
HL-60(TB)
  growth at 10 µM: -74.8%
